In ChEMBL document CHEMBL5113532, “Design and Characterization of a Natural Arf-GEFs Inhibitor Prodrug CHNQD-01255 with Potent Anti-Hepatocellular Carcinoma Efficacy In Vivo” (J Med Chem, 2022):
Converted amounts (≈) assume the structure as drawn.

Assays:
HepG2 [1] = assay: Antiproliferative activity against human HepG2 cells by MTT assay; format: functional, cell-based
[2] = Solubility of the compound in 0.9% NaCl at pH 7.4; format: physicochemical
[3] = Solubility of the compound in saline/DMSO (95/5% V/V) at pH 7.4; format: physicochemical
[4] = Solubility of the compound in saline/DMSO/solutol HS-15 (85/5/10% V/V/V) at pH 7.4; format: physicochemical
[5] = Stability of the compound at 4 to 60 degree C measured of 5 days by HPLC analysis; format: physicochemical; details: 120 h; time 5 day
HepG2 [6] = assay: Antitumor activity against human HepG2 cells xenografted in BALB/c nude mouse assessed as tumor growth inhibition at 45 mg/kg, po qd administered daily for 21 consecutive days and measured every 3 days upto 21 days relative to control; format: functional; details: HepG2, 504 h, time <= 21 day, read-out: TGI
HepG2 [7] = assay: Antitumor activity against human HepG2 cells xenografted in BALB/c nude mouse assessed as tumor growth inhibition at 9 mg/kg, iv qd administered daily for 21 consecutive days and measured every 3 days upto 21 days relative to control; format: functional; details: HepG2, 504 h, time <= 21 day, read-out: TGI
[8] = Toxicity in BALB/c mouse xenografted with human HepG2 cells assessed as change in body weight at 1 to 9 mg/kg, iv qd at 45 mg/kg, po treated daily for 21 days measured every 3 days upto 21 days; format: organism-based; details: in vivo, 504 h, dose 1-9 mg/kg, time < 21 day
[9] = Apparent volume of distribution in ICR mouse at 45 mg/kg, po measured after 0.083 to 12 hrs by UPLC-MS/MS analysis; format: ADME, organism-based; details: in vivo, time 0.083-12 hrs
[10] = Clearance in ICR mouse at 45 mg/kg, po measured after 0.083 to 12 hrs by UPLC-MS/MS analysis; format: ADME, organism-based; details: in vivo, time 0.083-12 hrs
[11] = Oral bioavailability in ICR mouse at 45 mg/kg measured after 0.083 to 12 hrs by UPLC-MS/MS analysis; format: ADME, organism-based; details: in vivo, time 0.083-12 hrs
[12] = Drug distribution in ICR mouse duodenum at 100 mg/kg, ip measured upto 0.5 hrs by UPLC-MS/MS analysis; format: ADME, organism-based; details: in vivo
[13] = Drug distribution in ICR mouse kidney at 100 mg/kg, ip measured upto 0.5 hrs by UPLC-MS/MS analysis; format: ADME, organism-based; details: in vivo
[14] = Drug elimination in ICR mouse liver at 100 mg/kg, ip measured for 1.5 hrs by UPLC-MS/MS analysis; format: ADME, organism-based; details: in vivo
[15] = Toxicity in ICR mouse assessed as change in body weight at 100 mg/kg, ip qd measured for 14 days; format: organism-based; details: in vivo, 336 h, time 14 day
[16] = Hepatotoxicity in ICR mouse assessed as change in blood AST level at 45 mg/kg, po by biochemical assay; format: toxicity, organism-based; details: in vivo
[17] = Renal toxicity in ICR mouse assessed as change in blood UREA level at 45 mg/kg, po by biochemical assay; format: organism-based; details: in vivo
[18] = Renal toxicity in ICR mouse assessed as change in blood UA level at 45 mg/kg, po by biochemical assay; format: organism-based; details: in vivo
[19] = Renal toxicity in ICR mouse assessed as change in blood CK level at 45 mg/kg, po by biochemical assay; format: organism-based; details: in vivo
[20] = Toxicity in ICR mouse assessed as effect on heart at 45 mg/kg, po measured after 2 weeks by H and E staining based analysis; format: organism-based; details: in vivo, 336 h
[21] = Toxicity in ICR mouse assessed as effect on spleen at 45 mg/kg, po measured after 2 weeks by H and E staining based analysis; format: organism-based; details: in vivo, 336 h

SMILES: C[C@H]1CCC/C=C/[C@@H]2C[C@H](OC(=O)OCc3cccnc3)C[C@H]2[C@H](O)/C=C/C(=O)O1
- IC50 (HepG2 [1]): 0.1 µM
- solubility [2]: < 1000 µg/mL
- solubility [3]: < 1000 µg/mL
- solubility [4]: 15000 µg/mL (≈ 36.1 mM)
- Stability [5]: Stable
- inhibition in vivo at 45 mg/kg (HepG2 [6]): 61%
- inhibition in vivo at 9 mg/kg (HepG2 [7]): 48.3%
- Activity [8]: Non-Toxic
- Vz [9]: 6339.7436 L/kg
- CL/F [10]: 598 L/h/kg
- bioavailability [11]: 2.26%
- Drug uptake [12]: Active
- Drug uptake [13]: Active
- Drug excretion [14]: Active
- Activity [15]: Non-Toxic
- Activity [16]: Non-Toxic
- Activity [17]: Non-Toxic
- Activity [18]: Non-Toxic
- Activity [19]: Non-Toxic
- Activity [20]: Non-Toxic
- Activity [21]: Non-Toxic
